{"source": "patent US20040053234A1", "about": "“Polynucletides that control delta-6 desaturase genes and methods for identifying compounds for modulating delta-6 desaturase” (priority 2000, published 2004)", "key": {"[1]": {"target": "T1, hD6D-1 (with V5/6xHis tags) (Homo sapiens, UniProt O95864)", "T1 sequence (O95864 1-444)": "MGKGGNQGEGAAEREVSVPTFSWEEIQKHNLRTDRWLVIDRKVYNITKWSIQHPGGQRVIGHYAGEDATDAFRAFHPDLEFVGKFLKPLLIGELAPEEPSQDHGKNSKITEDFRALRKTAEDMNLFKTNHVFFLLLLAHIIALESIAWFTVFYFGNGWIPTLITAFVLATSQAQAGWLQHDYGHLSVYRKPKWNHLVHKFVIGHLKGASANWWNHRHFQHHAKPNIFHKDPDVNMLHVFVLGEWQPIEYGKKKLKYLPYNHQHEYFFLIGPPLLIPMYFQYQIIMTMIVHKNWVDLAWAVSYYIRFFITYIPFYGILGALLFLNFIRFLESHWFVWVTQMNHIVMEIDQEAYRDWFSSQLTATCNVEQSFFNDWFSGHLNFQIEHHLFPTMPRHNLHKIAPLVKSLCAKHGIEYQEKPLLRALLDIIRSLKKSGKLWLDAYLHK", "assay": "Inhibition of hD6D-1 in spheroplasts of transformed Saccharomyces cerevisiae", "conditions": "[1-14C]-alpha-linolenic acid", "method": "(§1) Saccharomyces cerevisiae transformed with pYr5003.1 without V5/6×His tags or pTh5002.1 with V5/6×His tags were grown in modified SC-U medium with 2% galactose to induce the expression of the gene that encodes the fatty acid delta-6-desaturase. After 16 h incubation, cells were centrifuged at 2060×g for 5 min at 4° C., washed once with distilled water and centrifuged again. The volume and weight of the cell pellet were measured Cells were suspended (1:2 w/v) in 0.1 M Tris.SO4 (pH 9.4), 10 mM DTT and incubated at 30° C. After 10 min incubation, the cell pellet was obtained by centrifugation, washed once (1:20 w/v) with 1.2 M sorbitol and suspended (1:1 w/v) in 1.2 M sorbitol, 20 mM phosphate buffer (pH 7.4) as described elsewhere (Daum et al., 1982, J. Biol. Chem., 257: 13028-13033). The 15,800× g (1 min) supernatant of Lyticase was added to the cell suspension at a concentration of 2000 U/ml and the suspension incubated at 30° C. with 50 rpm shaking. Conversion to spheroplasts was checked after 40 min incubation by diluting the suspension with distilled water followed by observation under the microscope (Schatz G. and Kovac L., 1974, Methods in Enzymology, 31A: 627-632).\n(§2) Spheroplasts were harvested by centrifugation at 2060×g for 5 min at 4° C. and washed once with 1.2 M sorbitol. Spheroplasts were suspended in modified SC-U medium with 1% tergitol, 1.2 M sorbitol and 2% galactose to maintain the induction conditions and to give an OD600 reading of approximately 2.5-3.0. A 10 ml aliquot of the spheroplast suspension was transferred to a 125 ml Erlenmeyer flask and incubated with 200 μL of n-propyl gallate in ethanol (final concentration in the culture ranged between 0.7 and 14.1 mM) at 30° C. in an orbital incubator set at 270 rpm After 30 min incubation 1 μCi of [1-^14C]-alpha-linolenic or [1-^14C]-linoleic acids were added to the cultures to a final concentration of 2 μM and further incubated for 120 min. At this time point, turbidity readings at OD600 were taken, spheroplasts were harvested by centrifugation and washed with Tris buffer (100 mM, pH 8.0) containing 0.1%/o BSA. Total lipids were extracted as described below.\n(§3) The radioactivity from aliquots of the supernatant, spheroplasts and whole cells was determined by liquid scintillation counting using a LS6500-Scintillation System (Beckman) prior to the lipid extraction. Total lipids were extracted from cells or spheroplasts with chloroform/methanol (2:1 v/v) according to the method of Folch et al., 1957, J. Biol. Chem., 226: 497-509. The total lipid extracts were methylated using boron trifluoride in methanol at 90° C. for 30 min.\n(§4) The desaturase activity was determined by measuring the conversion of radiolabelled linoleic acid to gammna-linolenic acid (18:2n-6 to 18:3n-6) and alpha-linolenic acid to stearidonic acid (18:3n-3 to 18:4n-3). The percent inhibition was calculated as described elsewhere (Kawashima et al., 1996, Biosci. Biotech. Biochem., 60:1672-1676):\n(§5) Inhibition % =(activity without the inhibitor−activity with the inhibitor)/activity without the inhibitor"}, "[2]": {"tested_on": "spheroplasts of transformed Saccharomyces cerevisiae", "assay": "O.D.600 and substrate radioactivity recovered in spheroplasts (cytotoxicity, uptake)", "type": "cell-based", "description": "Total lipids were extracted as described below."}, "[3]": {"tested_on": "whole cells of transformed Saccharomyces cerevisiae", "assay": "O.D.600 and substrate radioactivity recovered in whole yeast cells", "conditions": "hD6D-1 whole cells", "description": "Transformed Saccharomyces cerevisiae pTh5002.1 with V5/6xHis tags were incubated in a 125 ml Erlenmeyer flask containing 9 ml of modified SC-U medium with 1% tergitol (O.D.6000.4, approximately 3.2×10^6 cells) and 200 μl of 7, 14 or 28 mM n-propyl gallate in ethanol. After 1 h incubation in an orbital incubator at 270 rpm and 30° C., 1 μCi of potassium salts of [1-^14C]-linoleic or [1-^14C]-alpha-linolenic acids (dissolved in modified SC-U medium and 1% tergitol) were added to the cell suspension to a final concentration of 2 μM. After 5 h incubation with the inhibitor, cells reached the log phase and the transgene expression was induced with the addition of 1 ml of galactose to a final concentration of 2%."}, "[4]": {"target": "T1, hD6D-1 (with V5/6xHis tags)", "assay": "Inhibition of hD6D-1 in whole cells of transformed Saccharomyces cerevisiae", "type": "cell-based", "set-up": "expressed in transfected cells; host or cells: Saccharomyces cerevisiae INVSc1 transformed with pTh5002.1 (pYES2/CT)", "conditions": "[1-14C]-alpha-linolenic acid", "method": "Transformed Saccharomyces cerevisiae pTh5002.1 with V5/6xHis tags were incubated in a 125 ml Erlenmeyer flask containing 9 ml of modified SC-U medium with 1% tergitol (O.D.6000.4, approximately 3.2×10^6 cells) and 200 μl of 7, 14 or 28 mM n-propyl gallate in ethanol. After 1 h incubation in an orbital incubator at 270 rpm and 30° C., 1 μCi of potassium salts of [1-^14C]-linoleic or [1-^14C]-alpha-linolenic acids (dissolved in modified SC-U medium and 1% tergitol) were added to the cell suspension to a final concentration of 2 μM. After 5 h incubation with the inhibitor, cells reached the log phase and the transgene expression was induced with the addition of 1 ml of galactose to a final concentration of 2%. Yeast were further incubated for 19 h (OD600 range 7.2-9.3) until they were harvested by centrifugation at 5000×g for 10 minutes at 4° C. Cell were washed with Tris buffer (100 mM, pH 8.0) containing 0.1% BSA and total lipids were extracted as described below.\nThe radioactivity from aliquots of the supernatant, spheroplasts and whole cells was determined by liquid scintillation counting using a LS6500-Scintillation System (Beckman) prior to the lipid extraction. […]\nThe desaturase activity was determined by measuring the conversion of radiolabelled linoleic acid to gammna-linolenic acid (18:2n-6 to 18:3n-6) and alpha-linolenic acid to stearidonic acid (18:3n-3 to 18:4n-3). […]"}, "[5]": {"target": "T1, hD6D-1 (with V5/6xHis tags)", "method": "as §1, §2, §3, §4, §5"}, "delta 6 desaturase": {"target": "T2, delta 6 desaturase (Rattus norvegicus, UniProt Q9Z122)", "T2 construct": "from tissue; host or cells: rat liver microsomes (female Wistar rats)", "T2 sequence (Q9Z122 whole entry)": "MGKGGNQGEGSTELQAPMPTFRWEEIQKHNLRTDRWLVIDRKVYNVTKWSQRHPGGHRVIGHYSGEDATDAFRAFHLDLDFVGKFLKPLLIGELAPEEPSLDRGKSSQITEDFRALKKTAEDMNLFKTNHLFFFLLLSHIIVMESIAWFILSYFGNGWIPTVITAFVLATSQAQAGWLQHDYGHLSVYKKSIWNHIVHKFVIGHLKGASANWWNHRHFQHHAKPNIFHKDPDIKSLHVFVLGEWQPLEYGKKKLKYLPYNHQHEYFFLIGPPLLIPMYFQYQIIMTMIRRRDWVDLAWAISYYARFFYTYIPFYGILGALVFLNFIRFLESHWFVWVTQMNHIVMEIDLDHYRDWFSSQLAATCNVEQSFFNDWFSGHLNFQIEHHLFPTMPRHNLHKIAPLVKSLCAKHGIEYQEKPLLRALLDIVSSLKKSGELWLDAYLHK", "assay": "Inhibition of delta 6 desaturase in rat liver microsomes incubated with alpha-linolenic or linoleic acid", "type": "biochemical", "description": "As proposed by Leikin and Brenner (Leikin A. I. and Brenner R. R., 1989, Biochim. Biophys. Acta. September 25, 1005: 187-191), the following are best conditions for the desaturation assays since the enzymes are saturated with the substrates and the reactions are linear within the incubation time. Reactions were started by adding 2 or 3 mg of microsomal protein to pre-incubated tubes containing 0.20 μCi of the substrate fatty acid at a final concentration of 33.3 μM in 1.5 ml of the homogenization solution, containing NaF (42 mM), niacinamide (0.33 mM), ATP (1.57 mM), NADH (1.01 mM) and coenzyme A (0.09 mM) as described elsewhere (Leikin A. I. and Brenner R. R., 1989, Biochim. Biophys. Acta. September 25,1005: 187-191).The tubes were vortexed vigorously and after 15 min incubation in a shaling water bath (37° C.), the reactions were stopped by the addition of 2 ml of 10% (w/v) KOH in ethanol. Lipids in the incubation mixture were saponified at 80° C. for 45 min under N2. The samples were then left in ice for 5 min before acidification. The fatty acids were extracted with hexane and esterified with BF3/methanol at 90° C. for 30 min (Morrison W. R. and Smith L. M., 1964, J. Lipid Res., 5: 600-608).\nHepatic microsomes were obtained from female Wistar rats by differential centrifigation as described in Example 3.\nIncubations were performed as described in Example 3. N-propyl gallate was added to the incubation medium to a final concentration that ranged from 0.02 to 0.32 mM."}, "[6]": {"target": "rD6D-1 (without V5/6xHis tags) (Rattus norvegicus, UniProt Q9Z122)", "sequence (Q9Z122 whole entry)": "as above", "method": "as §1, §2, §3, §4, §5"}}}
{"smiles": "CCCOC(=O)c1cc(O)c(O)c(O)c1", "note": "[n-propyl gallate, Propyl ester of 3,4,5-trihydroxybenzoic acid]", "values": [{"measurement": "% of inhibition", "setting": "[1]; inhibitor 0.7 mM", "result": 11.6, "unit": "%"}, {"measurement": "% of inhibition", "setting": "[1]; inhibitor 1.4 mM", "result": 18.8, "unit": "%"}, {"measurement": "% of inhibition", "setting": "[1]; inhibitor 2.8 mM", "result": 56.4, "unit": "%"}, {"measurement": "% of inhibition", "setting": "[1]; inhibitor 14.1 mM", "result": 100, "unit": "%"}, {"measurement": "Concentrations that may be toxic for the spheroplasts", "setting": "[2]; cell number slightly decreased, radioactivity recovered substantially reduced", "result": "> 5600", "unit": "µM"}, {"measurement": "O.D.600", "setting": "[2]; hD6D-1 spheroplasts, inhibitor 0.7 mM", "result": 2.2}, {"measurement": "O.D.600", "setting": "[2]; hD6D-1 spheroplasts, inhibitor 1.4 mM", "result": 3.4}, {"measurement": "O.D.600", "setting": "[2]; hD6D-1 spheroplasts, inhibitor 2.8 mM", "result": 3.1}, {"measurement": "O.D.600", "setting": "[2]; hD6D-1 spheroplasts, inhibitor 5.6 mM", "result": 3.5}, {"measurement": "O.D.600", "setting": "[2]; hD6D-1 spheroplasts, inhibitor 14.1 mM", "result": 2.5}, {"measurement": "Cytotoxicity to spheroplasts", "setting": "[2]; n-propyl gallate 0.7-5.6 mM, constant O.D.600, similar radioactivity recovered", "result": "not cytotoxic"}, {"measurement": "O.D.600", "setting": "[2]; rD6D-1 spheroplasts, inhibitor 0.7 mM", "result": 2.5}, {"measurement": "O.D.600", "setting": "[2]; rD6D-1 spheroplasts, inhibitor 1.4 mM", "result": 2.6}, {"measurement": "O.D.600", "setting": "[2]; rD6D-1 spheroplasts, inhibitor 2.8 mM", "result": 2.5}, {"measurement": "O.D.600", "setting": "[2]; rD6D-1 spheroplasts, inhibitor 5.6 mM", "result": 2.6}, {"measurement": "O.D.600", "setting": "[2]; rD6D-1 spheroplasts, inhibitor 14.1 mM", "result": 2.3}, {"measurement": "O.D.600", "setting": "[3]; inhibitor 7 mM", "result": 9.3}, {"measurement": "O.D.600", "setting": "[3]; inhibitor 14 mM", "result": 7.2}, {"measurement": "O.D.600", "setting": "[3]; inhibitor 28 mM", "result": 0}, {"measurement": "% of inhibition", "setting": "[4]; inhibitor 7 mM", "result": 36.7, "unit": "%"}, {"measurement": "% of inhibition", "setting": "[4]; inhibitor 14 mM", "result": 73.6, "unit": "%"}, {"measurement": "inhibition", "setting": "[5]", "result": 82.3, "unit": "%"}, {"measurement": "% of inhibition 18:2n-6 → 18:3n-6", "setting": "delta 6 desaturase; inhibitor 0.02 mM", "result": 18.0, "unit": "%"}, {"measurement": "% of inhibition 18:3n-3 → 18:4n-3", "setting": "delta 6 desaturase; inhibitor 0.02 mM", "result": 28.7, "unit": "%"}, {"measurement": "% of inhibition 18:2n-6 → 18:3n-6", "setting": "delta 6 desaturase; inhibitor 0.04 mM", "result": 32.0, "unit": "%"}, {"measurement": "% of inhibition 18:3n-3 → 18:4n-3", "setting": "delta 6 desaturase; inhibitor 0.04 mM", "result": 42.5, "unit": "%"}, {"measurement": "% of inhibition 18:2n-6 → 18:3n-6", "setting": "delta 6 desaturase; inhibitor 0.08 mM", "result": 64.5, "unit": "%"}, {"measurement": "% of inhibition 18:3n-3 → 18:4n-3", "setting": "delta 6 desaturase; inhibitor 0.08 mM", "result": 54.2, "unit": "%"}, {"measurement": "% of inhibition 18:2n-6 → 18:3n-6", "setting": "delta 6 desaturase; inhibitor 0.16 mM", "result": 82.6, "unit": "%"}, {"measurement": "% of inhibition 18:3n-3 → 18:4n-3", "setting": "delta 6 desaturase; inhibitor 0.16 mM", "result": 71.3, "unit": "%"}, {"measurement": "% of inhibition 18:2n-6 → 18:3n-6", "setting": "delta 6 desaturase; inhibitor 0.32 mM", "result": 98.7, "unit": "%"}, {"measurement": "% of inhibition 18:3n-3 → 18:4n-3", "setting": "delta 6 desaturase; inhibitor 0.32 mM", "result": 79.5, "unit": "%"}, {"measurement": "inhibition", "setting": "[6]", "result": 100, "unit": "%"}]}
